The term IC50 denotes the point on the concentration scale where inhibition reaches its midpoint.

Values joined by “and” are separate entries in the source; they are usually repeats but may differ in a detail not shown here. Equal entries are not always repeated. Where two headings read alike, the source gives them in different places. A value given as a limit tells only on which side of the number the result lay.

Test in all cases: CDK inhibition assay (microfluidic LabChip, IC50 format)
One test has as its target CDK7 CyclinH (Homo sapiens, UniProt P50613). The test is classed as biochemical.
A further test has as its target T1, CDK2-CYCLINA (Homo sapiens, UniProt P24941).
T1 construct: purchased Millipore
The test is classed as biochemical. As to conditions: read-out: CDK2 CyclinA IC50.

Another test has as its target T2, CDK9-CYCLINT1 (Homo sapiens, UniProt P50750).
T2 construct: purchased Carna
The test is classed as biochemical. As to conditions: read-out: CDK9 CyclinT1 IC50.

The target in a further test is T3, CDK6-CYCLIND3 (Homo sapiens, UniProt Q00534).
T3 construct: purchased Carna
T3 sequence (Q00534 whole entry): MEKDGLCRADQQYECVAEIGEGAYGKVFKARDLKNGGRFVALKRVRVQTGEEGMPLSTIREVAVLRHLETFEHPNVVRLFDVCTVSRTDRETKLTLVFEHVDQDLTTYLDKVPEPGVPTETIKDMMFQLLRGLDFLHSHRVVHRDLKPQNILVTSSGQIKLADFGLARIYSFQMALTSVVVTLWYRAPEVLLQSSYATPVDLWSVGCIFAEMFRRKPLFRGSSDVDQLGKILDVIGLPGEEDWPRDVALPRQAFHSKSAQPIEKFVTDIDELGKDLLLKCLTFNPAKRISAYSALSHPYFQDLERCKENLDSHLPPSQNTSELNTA
T3 sequence (P30281 whole entry partner): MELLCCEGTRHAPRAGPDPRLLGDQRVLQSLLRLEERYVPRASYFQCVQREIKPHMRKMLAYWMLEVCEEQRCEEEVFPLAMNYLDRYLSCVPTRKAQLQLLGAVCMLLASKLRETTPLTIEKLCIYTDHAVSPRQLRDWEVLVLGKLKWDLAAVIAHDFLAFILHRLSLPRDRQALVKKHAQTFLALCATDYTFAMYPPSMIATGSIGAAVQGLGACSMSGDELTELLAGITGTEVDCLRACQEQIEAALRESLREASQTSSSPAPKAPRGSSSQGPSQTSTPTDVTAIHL
The format is biochemical. As to conditions: read-out: CDK6 CyclinD3 IC50.

The target of the next test is CDK4-CYCLIND1 (Homo sapiens, UniProt P11802). As to conditions: a second value in parentheses for some compounds.
Chain of CDK4-CYCLIND1 (P11802 whole entry): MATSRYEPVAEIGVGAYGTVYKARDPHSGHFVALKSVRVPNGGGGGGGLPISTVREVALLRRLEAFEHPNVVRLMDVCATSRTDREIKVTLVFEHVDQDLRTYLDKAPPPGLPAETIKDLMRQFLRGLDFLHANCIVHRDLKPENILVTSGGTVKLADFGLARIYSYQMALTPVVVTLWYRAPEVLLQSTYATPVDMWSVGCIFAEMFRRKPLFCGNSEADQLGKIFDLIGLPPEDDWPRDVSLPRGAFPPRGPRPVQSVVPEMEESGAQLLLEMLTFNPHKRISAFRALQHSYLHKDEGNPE
Chain of CDK4-CYCLIND1 (P24385 whole entry partner): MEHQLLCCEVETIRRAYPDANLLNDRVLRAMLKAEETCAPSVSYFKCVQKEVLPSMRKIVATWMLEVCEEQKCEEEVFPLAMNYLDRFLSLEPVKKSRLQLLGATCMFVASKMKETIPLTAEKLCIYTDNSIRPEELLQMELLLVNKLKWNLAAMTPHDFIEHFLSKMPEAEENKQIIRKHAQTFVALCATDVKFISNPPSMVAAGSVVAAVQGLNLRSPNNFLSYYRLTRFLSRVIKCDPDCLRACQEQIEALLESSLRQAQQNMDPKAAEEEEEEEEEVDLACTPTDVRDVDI
Setting [1] is: CDK4 CyclinD1 IC50, Table 4b, lower part.

Chain of CDK7 CyclinH (P50613 whole entry): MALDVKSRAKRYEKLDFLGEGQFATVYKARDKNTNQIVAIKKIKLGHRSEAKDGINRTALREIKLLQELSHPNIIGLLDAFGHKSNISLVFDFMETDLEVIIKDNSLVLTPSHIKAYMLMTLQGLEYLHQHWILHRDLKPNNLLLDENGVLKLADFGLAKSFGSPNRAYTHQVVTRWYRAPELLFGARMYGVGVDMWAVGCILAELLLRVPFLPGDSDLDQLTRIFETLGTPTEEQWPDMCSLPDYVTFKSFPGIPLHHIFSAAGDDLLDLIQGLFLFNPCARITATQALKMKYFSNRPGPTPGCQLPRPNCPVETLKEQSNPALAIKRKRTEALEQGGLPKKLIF
Chain of CDK7 CyclinH (P51946 whole entry partner): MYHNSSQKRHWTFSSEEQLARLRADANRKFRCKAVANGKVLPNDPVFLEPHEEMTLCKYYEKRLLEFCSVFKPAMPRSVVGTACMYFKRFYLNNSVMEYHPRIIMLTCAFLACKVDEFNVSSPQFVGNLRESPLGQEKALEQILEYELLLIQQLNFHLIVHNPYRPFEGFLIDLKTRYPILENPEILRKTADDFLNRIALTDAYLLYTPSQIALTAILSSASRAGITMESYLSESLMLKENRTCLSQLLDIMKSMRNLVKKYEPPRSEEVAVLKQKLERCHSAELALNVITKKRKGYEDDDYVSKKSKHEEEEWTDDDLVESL
Chain of CDK7 CyclinH (P51948 whole entry partner): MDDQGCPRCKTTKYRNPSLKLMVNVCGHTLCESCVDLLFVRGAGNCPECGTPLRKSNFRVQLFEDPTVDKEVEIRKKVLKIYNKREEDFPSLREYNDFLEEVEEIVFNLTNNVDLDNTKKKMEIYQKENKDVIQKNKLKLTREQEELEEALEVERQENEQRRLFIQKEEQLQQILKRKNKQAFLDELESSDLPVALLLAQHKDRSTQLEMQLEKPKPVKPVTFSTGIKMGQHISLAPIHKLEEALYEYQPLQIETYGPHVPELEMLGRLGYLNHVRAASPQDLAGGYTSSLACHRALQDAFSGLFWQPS
T2 sequence (P50750 whole entry): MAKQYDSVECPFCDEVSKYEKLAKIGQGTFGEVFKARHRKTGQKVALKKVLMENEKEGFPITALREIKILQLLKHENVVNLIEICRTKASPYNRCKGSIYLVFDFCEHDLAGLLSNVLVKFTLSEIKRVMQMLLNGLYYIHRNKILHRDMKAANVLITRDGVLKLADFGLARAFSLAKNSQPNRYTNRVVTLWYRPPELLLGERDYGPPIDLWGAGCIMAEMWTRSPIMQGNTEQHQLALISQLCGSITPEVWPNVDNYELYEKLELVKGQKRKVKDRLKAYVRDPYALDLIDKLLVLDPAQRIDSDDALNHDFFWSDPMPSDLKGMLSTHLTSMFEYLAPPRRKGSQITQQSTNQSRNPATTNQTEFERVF
T2 sequence (O60563 whole entry partner): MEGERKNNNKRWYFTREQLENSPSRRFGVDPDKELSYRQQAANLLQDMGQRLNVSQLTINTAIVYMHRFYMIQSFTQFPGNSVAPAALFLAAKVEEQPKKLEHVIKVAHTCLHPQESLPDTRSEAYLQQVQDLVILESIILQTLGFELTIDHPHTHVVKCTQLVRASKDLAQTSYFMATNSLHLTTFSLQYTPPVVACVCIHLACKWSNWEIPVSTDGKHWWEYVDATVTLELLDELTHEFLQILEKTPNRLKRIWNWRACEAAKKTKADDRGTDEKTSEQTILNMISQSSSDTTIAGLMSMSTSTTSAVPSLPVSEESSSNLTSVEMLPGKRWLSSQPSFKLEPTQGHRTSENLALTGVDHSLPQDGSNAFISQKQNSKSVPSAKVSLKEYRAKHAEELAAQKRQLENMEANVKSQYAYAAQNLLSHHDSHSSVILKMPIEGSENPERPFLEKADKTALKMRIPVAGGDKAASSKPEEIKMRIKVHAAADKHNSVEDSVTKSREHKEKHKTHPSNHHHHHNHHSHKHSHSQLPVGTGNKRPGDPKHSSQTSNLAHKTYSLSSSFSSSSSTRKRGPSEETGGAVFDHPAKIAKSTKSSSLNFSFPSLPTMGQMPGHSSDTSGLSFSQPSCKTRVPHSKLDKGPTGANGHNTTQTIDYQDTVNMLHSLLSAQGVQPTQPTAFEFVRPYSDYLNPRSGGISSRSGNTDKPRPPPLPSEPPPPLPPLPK

Regarding `COc1cc(Nc2ncc3c(n2)N(C2CCCC2)C(=O)[C@]2(CCNC2=O)C3)ccc1N1CCN(C)CC1` [Example D160, (S)-8-cyclopentyl-2-((3-methoxy-4-(4-methylpiperazin-1-yl)phenyl)amino)-5,8-dihydro-7H-spiro[pyrido[2,3-d]pyrimidine-6,3′-pyrrolidine]-2′,7-dione], the IC50 stood at 0.157 µM against CDK7 CyclinH (Table 4a); 0.0335 µM on CDK2-CYCLINA (Table 4a); 0.00641 µM on CDK9-CYCLINT1 (Table 4a); 0.00341 µM on CDK6-CYCLIND3 (Table 4a); 0.0012 µM at CDK4-CYCLIND1 (CDK4 CyclinD1 IC50, Table 4a).
Taken in the same sequence, the figures for `COc1cc(Nc2ncc3c(n2)N(C2CCCC2)C(=O)[C@]2(CCNC2=O)C3)ccc1N1CCN(C(C)C)CC1` [Example D161, (S)-8-cyclopentyl-2-((4-(4-isopropylpiperazin-1-yl)-3-methoxyphenyl)amino)-5,8-dihydro-7H-spiro[pyrido[2,3-d]pyrimidine-6,3′-pyrrolidine]-2′,7-dione] were 0.157 µM, 0.0305 µM, 0.00727 µM, 0.00388 µM and 0.00129 µM.
The like results for `Cc1cc(N2CCNCC2)ccc1Nc1ncc2c(n1)N(C1CCCC1)C(=O)[C@]1(CCNC1=O)C2` [Example D162, (S)-8-cyclopentyl-2-((2-methyl-4-(piperazin-1-yl)phenyl)amino)-5,8-dihydro-7H-spiro[pyrido[2,3-d]pyrimidine-6,3′-pyrrolidine]-2′,7-dione] were, in that order, 3.24 µM, 0.382 µM, 0.0619 µM, 0.0104 µM and 0.00534 µM.
The like results for `Cc1cc(N2CCN(C)CC2)ccc1Nc1ncc2c(n1)N(C1CCCC1)C(=O)[C@]1(CCNC1=O)C2` [Example D163, (S)-8-cyclopentyl-2-((2-methyl-4-(4-methylpiperazin-1-yl)phenyl)amino)-5,8-dihydro-7H-spiro[pyrido[2,3-d]pyrimidine-6,3′-pyrrolidine]-2′,7-dione] were, in that order, 2.63 µM, 0.338 µM, 0.0651 µM, 0.0106 µM and 0.00902 µM.
With `Cc1cc(N2CCN(C(C)C)CC2)ccc1Nc1ncc2c(n1)N(C1CCCC1)C(=O)[C@]1(CCNC1=O)C2` [Example D164, (S)-8-cyclopentyl-2-((4-(4-isopropylpiperazin-1-yl)-2-methylphenyl)amino)-5,8-dihydro-7H-spiro[pyrido[2,3-d]pyrimidine-6,3′-pyrrolidine]-2′,7-dione], the IC50 was determined as 3.16 µM on CDK7 CyclinH (Table 4a); 0.744 µM on CDK2-CYCLINA (Table 4a); 0.0719 µM on CDK9-CYCLINT1 (Table 4a); 0.0137 µM on CDK6-CYCLIND3 (Table 4a); 0.00905 µM on CDK4-CYCLIND1 (CDK4 CyclinD1 IC50, Table 4a).
Taken in the same sequence, the figures for `COc1cc(N2CCNCC2)ccc1Nc1ncc2c(n1)N(C1CCCC1)C(=O)[C@]1(CCNC1=O)C2` [Example D165, (S)-8-cyclopentyl-2-((2-methoxy-4-(piperazin-1-yl)phenyl)amino)-5,8-dihydro-7H-spiro[pyrido[2,3-d]pyrimidine-6,3′-pyrrolidine]-2′,7-dione] were 7.3 µM, 0.775 µM, 0.236 µM, 0.0585 µM and 0.0292 µM.
For the compound `COc1cc(N2CCN(C(C)C)CC2)ccc1Nc1ncc2c(n1)N(C1CCCC1)C(=O)[C@]1(CCNC1=O)C2` [Example D167, (S)-8-cyclopentyl-2-((4-(4-isopropylpiperazin-1-yl)-2-methoxyphenyl)amino)-5,8-dihydro-7H-spiro[pyrido[2,3-d]pyrimidine-6,3′-pyrrolidine]-2′,7-dione], the IC50 is 12 µM against CDK7 CyclinH (Table 4a); 2.9 µM at CDK2-CYCLINA (Table 4a); 0.418 µM at CDK9-CYCLINT1 (Table 4a); 0.111 µM on CDK6-CYCLIND3 (Table 4a); 0.069 µM at CDK4-CYCLIND1 (CDK4 CyclinD1 IC50, Table 4a).
Taken in the same sequence, the figures for `CC(C)n1cc(-c2ccc(Nc3ncc4c(n3)N(C3CCCC3)C(=O)[C@]3(CCNC3=O)C4)nc2)cn1` [Example D170, (S)-8-cyclopentyl-2-((5-(1-isopropyl-1H-pyrazol-4-yl)pyridin-2-yl)amino)-5,8-dihydro-7H-spiro[pyrido[2,3-d]pyrimidine-6,3′-pyrrolidine]-2′,7-dione] were more than 100 µM, 8.56 µM, 0.39 µM, 0.0531 µM and 0.0423 µM.
Taken in the same sequence, the figures for `CC(C)N1CC2(CN(c3ccc(Nc4ncc5c(n4)N(C4CCCC4)C(=O)[C@]4(CCNC4=O)C5)nc3)C2)C1` [Example D171, (S)-8-cyclopentyl-2-((5-(6-isopropyl-2,6-diazaspiro[3.3]heptan-2-yl)pyridin-2-yl)amino)-5,8-dihydro-7H-spiro[pyrido[2,3-d]pyrimidine-6,3′-pyrrolidine]-2′,7-dione] were 26.5 µM, 2.84 µM, 0.271 µM, 0.00378 µM and 0.00198 µM.
The like results for `O=C1NCC[C@@]12Cc1cnc(Nc3ccc(N4CC5(CNC5)C4)cc3)nc1N(C1CCCC1)C2=O` [Example D172, (S)-2-((4-(2,6-diazaspiro[3.3]heptan-2-yl)phenyl)amino)-8-cyclopentyl-5,8-dihydro-7H-spiro[pyrido[2,3-d]pyrimidine-6,3′-pyrrolidine]-2′,7-dione] were, in that order, 0.673 µM, 0.0795 µM, 0.00481 µM, 0.0066 µM and 0.00272 µM.
Regarding `O=C1NCC[C@@]12Cc1cnc(Nc3ccc(N4CC5(CNC5)C4)c(F)c3)nc1N(C1CCCC1)C2=O` [Example D173, (S)-8-cyclopentyl-2-((3-fluoro-4-(2,6-diazaspiro[3.3]heptan-2-yl)phenyl)amino)-5,8-dihydro-7H-spiro[pyrido[2,3-d]pyrimidine-6,3′-pyrrolidine]-2′,7-dione], the IC50 on CDK7 CyclinH (Table 4a) is 0.682 µM; at CDK2-CYCLINA (Table 4a), 0.11 µM; on CDK9-CYCLINT1 (Table 4a) it was 0.00574 µM; at CDK6-CYCLIND3 (Table 4a), 0.0116 µM; on CDK4-CYCLIND1 (CDK4 CyclinD1 IC50, Table 4a), 0.00537 µM.
The like results for `CN(C)[C@H]1CCN(c2ccc(Nc3ncc4c(n3)N(C3CCCC3)C(=O)[C@]3(CCNC3=O)C4)cc2)C1` [Example D174, (S)-8-cyclopentyl-2-((4-((S)-3-(dimethylamino)pyrrolidin-1-yl)phenyl)amino)-5,8-dihydro-7H-spiro[pyrido[2,3-d]pyrimidine-6,3′-pyrrolidine]-2′,7-dione] were, in that order, 0.505 µM, 0.0609 µM, 0.00693 µM, 0.00316 µM and 0.00152 µM.
Take `CN(C)[C@@H]1CCN(c2ccc(Nc3ncc4c(n3)N(C3CCCC3)C(=O)[C@]3(CCNC3=O)C4)cn2)C1` [Example D175, (S)-8-cyclopentyl-2-((6-((R)-3-(dimethylamino)pyrrolidin-1-yl)pyridin-3-yl)amino)-5,8-dihydro-7H-spiro[pyrido[2,3-d]pyrimidine-6,3′-pyrrolidine]-2′,7-dione]: the IC50 against CDK7 CyclinH (Table 4a) was 0.465 µM; on CDK2-CYCLINA (Table 4a) it was 0.0571 µM; on CDK9-CYCLINT1 (Table 4a), 0.00362 µM; on CDK6-CYCLIND3 (Table 4a) it was 0.0026 µM; at CDK4-CYCLIND1 (CDK4 CyclinD1 IC50, Table 4a) it was 0.00156 µM and 0.00083 µM.
For `CN(C)[C@H]1CCN(C(=O)c2ccc(Nc3ncc4c(n3)N(C3CCCC3)C(=O)[C@]3(CCNC3=O)C4)cc2)C1` [Example D177, (S)-8-cyclopentyl-2-((4-((S)-3-(dimethylamino)pyrrolidine-1-carbonyl)phenyl)amino)-5,8-dihydro-7H-spiro[pyrido[2,3-d]pyrimidine-6,3′-pyrrolidine]-2′,7-dione], the IC50 is 2.94 µM at CDK7 CyclinH (Table 4a); 0.05 µM on CDK2-CYCLINA (Table 4a); 0.0191 µM at CDK9-CYCLINT1 (Table 4a); 0.0139 µM on CDK6-CYCLIND3 (Table 4a); 0.00472 µM on CDK4-CYCLIND1 (CDK4 CyclinD1 IC50, Table 4a).
`O=C1NCC[C@@]12Cc1cnc(Nc3ccc(OCCN4CCCC4)c(F)c3)nc1N(C1CCCC1)C2=O` [Example D180, (S)-8-cyclopentyl-2-((3-fluoro-4-(2-(pyrrolidin-1-yl)ethoxy)phenyl)amino)-5,8-dihydro-7H-spiro[pyrido[2,3-d]pyrimidine-6,3′-pyrrolidine]-2′,7-dione]: the IC50 on CDK7 CyclinH (Table 4a) came out at 0.266 µM; on CDK2-CYCLINA (Table 4a), 0.0987 µM; on CDK9-CYCLINT1 (Table 4a) it was 0.00284 µM; on CDK6-CYCLIND3 (Table 4a), 0.00435 µM; on CDK4-CYCLIND1 (CDK4 CyclinD1 IC50, Table 4a), 0.00179 µM.
Turning to `O=C1NCC[C@@]12Cc1cnc(Nc3ccc(N4CCC(N5CCOCC5)CC4)cn3)nc1N(C1CCCC1)C2=O` [Example D181, (S)-8-cyclopentyl-2-((5-(4-morpholinopiperidin-1-yl)pyridin-2-yl)amino)-5,8-dihydro-7H-spiro[pyrido[2,3-d]pyrimidine-6,3′-pyrrolidine]-2′,7-dione], the IC50 against CDK7 CyclinH (Table 4b, lower part) turned out to be 40.9 µM; on CDK2-CYCLINA (Table 4b, lower part), 5.82 µM; at CDK9-CYCLINT1 (Table 4b, lower part), 0.818 µM; at CDK6-CYCLIND3 (Table 4b, lower part) it was 0.00679 µM; on CDK4-CYCLIND1 (setting [1]), 0.0043 µM.
The like results for `O=C1NCC[C@@]12Cc1cnc(Nc3ccc(N4CCC(N5CCOCC5)CC4)cc3)nc1N(C1CCCC1)C2=O` [Example D182, (S)-8-cyclopentyl-2-((4-(4-morpholinopiperidin-1-yl)phenyl)amino)-5,8-dihydro-7H-spiro[pyrido[2,3-d]pyrimidine-6,3′-pyrrolidine]-2′,7-dione] were, in that order, 0.591 µM, 0.115 µM, 0.0162 µM, less than 0.00056 µM and less than 0.00056 µM.

The values above are taken from patent US20230048132A1, “CYCLIN-DEPENDENT KINASE INHIBITORS” (SPV THERAPEUTICS INC., priority 2018, published 2023).
